Marks after values point to notes of the source that are not given here.
Columns and labels:
PC3 [1] = assay: DNA fragmentation assay, PC3; assay type: cell-based, human
CDKN2A = assay: qRT-PCR, CDKN2A in PACA2 cells; assay type: cell-based, human; conditions: versus negative untreated sample
HCT116 [2] = assay: DNA fragmentation assay, HCT116; assay type: cell-based, human
[3] = test system: normal skin fibroblast cell line (BJ1); assay: cells; assay type: cell-based; conditions: Homo sapiens, Skin fibroblast, MTT, 48 h
in vitro = assay type: cell-based; conditions: human, BJ1 normal skin fibroblast cells, 100 μg/mL
KRAS = assay: qRT-PCR, KRAS in A549 cells; assay type: cell-based, human; conditions: versus negative samples
[4] = test system: hepatocellular carcinoma cell line (HePG2); assay: cells; assay type: cell-based; conditions: Homo sapiens, 48 h
colon cancer (HCT116) = assay: cells; assay type: cell-based; conditions: Homo sapiens, 48 h
A549 [5] = assay: DNA damage, comet assay, A549; assay type: cell-based, human; conditions: of 400 cells analyzed
[6] = test system: osteosarcoma cell line (HOS); assay: cells; assay type: cell-based; conditions: Homo sapiens, 48 h
[7] = test system: human lung carcinoma (A549); assay: cells; assay type: cell-based; conditions: 48 h
prostate cancer (PC3) = assay: cells; assay type: cell-based; conditions: Homo sapiens, 48 h
EGFR = assay: qRT-PCR, EGFR in A549 cells; assay type: cell-based, human; conditions: versus negative samples
PACA2 [8] = assay: DNA damage, comet assay, PACA2; assay type: cell-based, human
[9] = test system: pancreatic cancer cell line (PACA2); assay: cells; assay type: cell-based; conditions: Homo sapiens, 48 h
FASN = assay: qRT-PCR, FASN in HCT116 cells; assay type: cell-based, human; conditions: versus negative samples
BRCA1 = assay: qRT-PCR, BRCA1 in PC3 cells; assay type: cell-based, human; conditions: versus negative samples
HCT116 [10] = assay: DNA damage, comet assay, HCT116; assay type: cell-based, human
BRCA2 = assay: qRT-PCR, BRCA2 in PC3 cells; assay type: cell-based, human; conditions: versus negative samples
TP53 = assay: qRT-PCR, TP53 in HCT116 cells; assay type: cell-based, human; conditions: versus negative samples
Procedure: RNA was extracted from pancreas, prostate, lung and liver cell lines using a total RNA purification kit (Qiagen, Hilden, Germany) according to the manufacturer's instructions. An aliquot of RNA was diluted in RNase-free water to estimate RNA quantity. Aliquots were used immediately for reverse transcription (RT). cDNA synthesis was performed on extracted RNA, which was treated with DNase (Invitrogen, Germany) to remove any possible DNA contamination. The DNase-treated RNA was reverse transcribed into first-strand cDNA using the RevertAid First Strand cDNA Synthesis kit (Fermantas) according to the manufacturer's instructions. Determination of the pancreas, prostate, lung and liver cell line cDNA copy number was carried out using StepOne™ Real-Time PCR System from Applied Biosystems (Thermo Fisher Scientific, Waltham, MA USA). Gene expressions were detected by real-time PCR, which was performed using the Rotor-Gene Q system (Qiagen Company). A 25 µL reaction mixture consisted of 12.5 µL SYBR® Premix Ex TaqTM (TaKaRa, Biotech. Co. Ltd.), 0.5 µL of each primer (10 PMole) (Table 1), 1 µL cDNA (50 ng) and 10.5 µL RNase free water. The optimum amplification conditions were chosen empirically according to each tested gene. Generally, the amplification conditions include initial incubation (95.0 °C for 3 min), then 40 cycles of amplification with denaturation (95.0 °C for 15 s), annealing (55.0 °C for 30 s) and extension (72.0 °C for 30 s) steps then 71 cycles which started at 60.0 °C and then increased about 0.5 °C every 10 s up to 95.0 °C. Mean cycle threshold (Ct) values of triplicate samples are used for analysis. The Ct value indicates the fractional cycle number at which the amount of amplified target reaches a fixed threshold. Data from real-time PCR were analyzed using 2^−∆∆Ct method[38]–[40]. Data were represented as the fold change in target gene expression normalized to a House-Keeping gene (HKG) and relative to the control. β-actin was used as a HKG to normalize input RNA amount, RNA quality and reverse transcription efficiency.

PALB2 = assay: qRT-PCR, PALB2 in PACA2 cells; assay type: cell-based, human; conditions: versus negative untreated sample
PC3 [11] = assay: DNA damage, comet assay, PC3; assay type: cell-based, human
skin cancer (A431) = assay: cells; assay type: cell-based; conditions: Homo sapiens, 48 h
A549 [12] = assay: DNA fragmentation assay, A549; assay type: cell-based, human
PACA2 [13] = assay: DNA fragmentation assay, PACA2; assay type: cell-based, human

COc1cccc2c1C(=O)c1c(O)c3c(c(O)c1C2=O)C[C@@](O)(C(=O)CO)C[C@@H]3O[C@H]1C[C@H](N)[C@H](O)[C@H](C)O1 [Doxorubicin, reference compound]
Change (DNA fragmentation versus untreated cells) (PC3 [1]): 20.1
DNA fragmentation % M ± SEM (PC3 [1]; IC50 concentration, 24 h): 31.7 ± 0.85^b %
Inhibition (PC3 [1]; doxorubicin = 0.0): 0.0
CDKN2A gene expression level (CDKN2A): significantly reduced
Change (DNA fragmentation versus untreated cells) (HCT116 [2]): 21.00
Inhibition (HCT116 [2]; doxorubicin = 0.00): 0.00
IC50 [3]: 24.8 ± 0.52 µM
mortality at 48 h, 100 µg/mL (in vitro): 100%
KRAS gene expression level (KRAS): significant reduction
mortality at 100 µg/mL ([4]; 100 μg/mL): 100%
IC50 ([4]; MTT): 39.7 ± 0.18 µM
mortality at 100 µg/mL (colon cancer (HCT116); HCT-116, 100 μg/mL): 100%
IC50 (colon cancer (HCT116); HCT-116, MTT): 69.2 ± 0.1 µM
Class 0 (no tail), number of cells (A549 [5]): 314
Class 1 (tail length < diameter of nucleus), number of cells (A549 [5]): 25
Class 2 (tail length between 1 and 2 × the diameter of nucleus), number of cells (A549 [5]): 32
Class 3 (tail length > 2 × the diameter of nucleus), number of cells (A549 [5]): 29
No. of cells, Comets (A549 [5]): 86
mortality at 100 µg/mL ([6]; 100 μg/mL): 100%
IC50 ([6]; MTT): 24.3 ± 0.24 µM
mortality at 100 µg/mL ([7]; 100 μg/mL): 100%
IC50 ([7]; MTT): 52.1 ± 0.28 µM
mortality at 100 µg/mL (prostate cancer (PC3); 100 μg/mL): 100%
IC50 (prostate cancer (PC3); MTT): 43.8 ± 0.47 µM
EGFR gene expression level (EGFR): significant reduction
DNA damaged cells % (mean ± SEM) (PACA2 [8]): 20.25 ± 0.75^a %
Class 1 (tail length < diameter of nucleus), number of cells (PACA2 [8]; of 400 cells analyzed): 28
Class 2 (tail length between 1 and 2 × the diameter of nucleus), number of cells (PACA2 [8]; of 400 cells analyzed): 26
Class 3 (tail length > 2 × the diameter of nucleus), number of cells (PACA2 [8]; of 400 cells analyzed): 27
No. of cells, Comets (PACA2 [8]; of 400 cells analyzed): 81
mortality at 100 µg/mL ([9]; PaCa-2, 100 μg/mL): 100%
IC50 ([9]; PaCa-2, MTT): 52.1 ± 0.19 µM
FASN gene expression level (FASN): suppression
BRCA1 gene expression level (BRCA1): decreased significantly
DNA damaged cells % (mean ± SEM) (HCT116 [10]): 21.26 ± 0.48^ab %
Class 0 (no tail), number of cells (HCT116 [10]; of 400 cells analyzed): 315
Class 1 (tail length < diameter of nucleus), number of cells (HCT116 [10]; of 400 cells analyzed): 33
Class 2 (tail length between 1 and 2 × the diameter of nucleus), number of cells (HCT116 [10]; of 400 cells analyzed): 24
Class 3 (tail length > 2 × the diameter of nucleus), number of cells (HCT116 [10]; of 400 cells analyzed): 28
No. of cells, Comets (HCT116 [10]; of 400 cells analyzed): 85
BRCA2 gene expression level (BRCA2): decreased significantly
TP53 gene expression level (TP53): suppression
PALB2 gene expression level (PALB2): significantly reduced
DNA damaged cells % (mean ± SEM) (PC3 [11]): 20.76 ± 1.38^b %
Class 0 (no tail), number of cells (PC3 [11]; of 400 cells analyzed): 317
Class 1 (tail length < diameter of nucleus), number of cells (PC3 [11]; of 400 cells analyzed): 39
Class 2 (tail length between 1 and 2 × the diameter of nucleus), number of cells (PC3 [11]; of 400 cells analyzed): 30
Class 3 (tail length > 2 × the diameter of nucleus), number of cells (PC3 [11]; of 400 cells analyzed): 14
No. of cells, Comets (PC3 [11]; of 400 cells analyzed): 83
mortality at 100 µg/mL (skin cancer (A431); A-431, 100 μg/mL): 100%
IC50 (skin cancer (A431); A-431, MTT): 45.8 ± 0.15 µM
Change (DNA fragmentation versus untreated cells) (A549 [12]): 19.5
DNA fragmentation % M ± SEM (A549 [12]; IC50 concentration, 24 h): 30.9 ± 1.64^a %
Inhibition (A549 [12]; doxorubicin = 0.0): 0.0
Change (DNA fragmentation versus untreated cells) (PACA2 [13]): 18.00
DNA fragmentation % M ± SEM (PACA2 [13]; IC50 concentration, 24 h): 30.1 ± 0.62^b %
Inhibition (PACA2 [13]; doxorubicin = 0.0): 0.0

Reference: publication PMC10579241, “Impact of trifluoromethyl and sulfonyl groups on the biological activity of novel aryl-urea derivatives: synthesis, in-vitro, in-silico and SAR studies” (Scientific Reports, 2023)
